Test system: pAG2339 promoter deletion (gus reporter) in PR8-2, PR8-3, PR8-12
Type: cell-based, tobacco

O=C(O)c1ccccc1O [SA, salicylic acid]
change of reporter gene activity (in words): no significant change
